Data from patent US20230303553A1, “CDK6/DYRK2 DUAL-TARGET INHIBITOR, AND PREPARATION METHOD THEREFOR AND USE THEREOF” (JIANGSU TASLY DIYI PHARMACEUTICAL CO., LTD., priority 2021, published 2023).
Read-outs that look alike come from different tables or passages of the source.

What was measured:
CDK6 kinase = CDK6 kinase (Homo sapiens (Human), UniProt Q00534); assay: CDK6 kinase activity, Lance Ultra TR-FRET; assay type: biochemical
[1] = system: xenografts of human prostate cancer Du-145; assay: Human prostate cancer Du-145 xenografts in nude mice; assay type: in vivo, BALB/c nude mice; conditions: for inhibition on tumor growth, in words: FIG. 3
[2] = system: leukemia (K562) cell line; assay: MTT cancer cell proliferation, K562; assay type: cell-based; conditions: Homo sapiens, K562, 72 h, read-out: IC50 proliferation K-562
DYRK2 kinase = DYRK2 kinase (Homo sapiens (Human), UniProt Q92630); assay: DYRK2 kinase activity, 33P-ATP / Woodtide substrate; assay type: biochemical
[3] = system: liver cancer (HepG2) cell line; assay: MTT cancer cell proliferation, HepG2; assay type: cell-based; conditions: Homo sapiens, HepG2, 72 h, read-out: IC50 proliferation HepG2
[4] = system: triple negative breast cancer (MDA-MB-231) cell line; assay: MTT cancer cell proliferation, MDA-MB-231; assay type: cell-based; conditions: Homo sapiens, MDA-MB-231, 72 h, read-out: IC50 proliferation MDA-MB-231
[5] = system: xenografts of human lung cancer A549; assay: Human lung cancer A549 xenografts in nude mice; assay type: in vivo, BALB/c nude mice; conditions: for relative tumor proliferation rate T/C(%) / tumor growth inhibition rate: A549 xenograft, 21 days
[6] = system: xenografts of human prostate cancer PC3; assay: Human prostate cancer PC-3 xenografts in nude mice; assay type: in vivo, BALB/c nude mice; conditions: for relative tumor proliferation rate T/C(%) / tumor growth inhibition rate: PC-3 xenograft, 28 days
[7] = system: prostate cancer (Du-145) cell line; assay: MTT cancer cell proliferation, Du-145; assay type: cell-based; conditions: Homo sapiens, DU-145, 72 h, read-out: IC50 proliferation Du-145
[8] = system: human glioma (U251) cell line; assay: MTT cancer cell proliferation, U251; assay type: cell-based; conditions: U-251, 72 h, read-out: IC50 proliferation U251
[9] = system: multiple myeloma (RPMI8226) cell line; assay: MTT cancer cell proliferation, RPMI8226; assay type: cell-based; conditions: Homo sapiens, RPMI-8226, 72 h, read-out: IC50 proliferation RPMI8226
[10] = system: pancreatic cancer (Panc-1) cell line; assay: MTT cancer cell proliferation, Panc-1; assay type: cell-based; conditions: Homo sapiens, PANC-1, 72 h, read-out: IC50 proliferation Panc-1
[11] = system: non-small cell lung cancer (NCI-H1299) cell line; assay: MTT cancer cell proliferation, NCI-H1299; assay type: cell-based; conditions: Homo sapiens, NCI-H1299, 72 h, read-out: IC50 proliferation NCI-H1299
[12] = system: colon cancer (HT-29) cell line; assay: MTT cancer cell proliferation, HT-29; assay type: cell-based; conditions: Homo sapiens, HT-29, 72 h, read-out: IC50 proliferation HT-29
[13] = Pharmacokinetics in SD rats; assay type: in vivo; conditions: for half-life: read-out: t ½ (converted)
[14] = system: ovarian cancer (SK-OV-3) cell line; assay: MTT cancer cell proliferation, SK-OV-3; assay type: cell-based; conditions: Homo sapiens, SK-OV-3, 72 h, read-out: IC50 proliferation SK-OV-3
ICR mice = assay: Acute toxicity in mice, single gavage; assay type: in vivo
[15] = system: gastric cancer (MGC-803) cell line; assay: MTT cancer cell proliferation, MGC-803; assay type: cell-based; conditions: Homo sapiens, MGC-803, 72 h, read-out: IC50 proliferation MGC-803
[16] = system: human breast cancer (MCF-7); assay: MTT cancer cell proliferation, MCF-7; assay type: cell-based; conditions: MCF7, 72 h, read-out: IC50 proliferation MCF-7
[17] = system: prostate cancer (PC-3) cell line; assay: MTT cancer cell proliferation, PC-3; assay type: cell-based; conditions: Homo sapiens, PC-3, 72 h, read-out: IC50 proliferation PC-3
lung cancer (A-549) = assay: MTT cancer cell proliferation, A-549; assay type: cell-based; conditions: Homo sapiens, A549, 72 h, read-out: IC50 proliferation A-549
[18] = Du-145 xenograft, 200 mg/kg intragastric once every day
[19] = 150 mg/kg intragastric once every 2 days
[20] = 300 mg/kg intragastric once every 2 days
[21] = 100 mg/kg intragastric once every day
[22] = 200 mg/kg intragastric once every day
[23] = rat, plasma, iv tail vein 1 mg/kg
[24] = rat, plasma, po gavage 10 mg/kg

Sequence of CDK6 kinase (Q00534 whole entry): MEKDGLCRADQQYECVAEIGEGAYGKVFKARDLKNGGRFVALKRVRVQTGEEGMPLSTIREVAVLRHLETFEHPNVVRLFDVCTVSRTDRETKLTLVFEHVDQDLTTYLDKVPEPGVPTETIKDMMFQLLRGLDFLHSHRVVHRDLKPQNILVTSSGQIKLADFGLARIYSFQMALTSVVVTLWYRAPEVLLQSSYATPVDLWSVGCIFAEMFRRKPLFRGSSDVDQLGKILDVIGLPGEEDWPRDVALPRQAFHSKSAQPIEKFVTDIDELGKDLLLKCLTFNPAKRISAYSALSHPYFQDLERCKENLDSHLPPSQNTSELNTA
Sequence of CDK6 kinase (P24385 whole entry partner): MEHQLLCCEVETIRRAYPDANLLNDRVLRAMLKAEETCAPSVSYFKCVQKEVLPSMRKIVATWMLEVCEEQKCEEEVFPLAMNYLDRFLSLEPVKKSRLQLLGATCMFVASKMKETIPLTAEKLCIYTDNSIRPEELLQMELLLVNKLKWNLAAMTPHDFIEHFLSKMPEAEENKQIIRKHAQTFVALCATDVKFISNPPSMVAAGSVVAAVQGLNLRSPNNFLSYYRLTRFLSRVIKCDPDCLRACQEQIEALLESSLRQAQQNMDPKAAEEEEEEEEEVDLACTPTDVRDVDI
Sequence of DYRK2 kinase (Q92630 whole entry): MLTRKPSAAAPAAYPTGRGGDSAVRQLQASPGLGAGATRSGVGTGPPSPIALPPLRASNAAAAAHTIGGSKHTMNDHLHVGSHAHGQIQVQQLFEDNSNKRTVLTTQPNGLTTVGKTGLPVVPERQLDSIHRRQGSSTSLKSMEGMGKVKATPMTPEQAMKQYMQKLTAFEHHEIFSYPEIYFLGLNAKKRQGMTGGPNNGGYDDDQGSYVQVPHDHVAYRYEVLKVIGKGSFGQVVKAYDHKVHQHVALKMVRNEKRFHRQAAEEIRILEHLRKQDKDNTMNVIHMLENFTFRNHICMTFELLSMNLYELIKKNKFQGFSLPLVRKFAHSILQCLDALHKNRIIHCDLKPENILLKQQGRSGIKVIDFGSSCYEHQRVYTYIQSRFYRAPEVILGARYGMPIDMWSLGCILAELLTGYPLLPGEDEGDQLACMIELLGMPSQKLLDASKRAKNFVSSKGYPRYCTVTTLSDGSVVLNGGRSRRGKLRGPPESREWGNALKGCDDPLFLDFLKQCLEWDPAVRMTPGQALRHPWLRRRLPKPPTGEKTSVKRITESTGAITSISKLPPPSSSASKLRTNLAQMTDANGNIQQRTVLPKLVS

Structure (SMILES): CCN1CCN(C(=O)c2ccc(Nc3ncc(F)c(-c4ccc5nc(N(C)C)sc5c4)n3)nc2)CC1 [Example 31, (6-((4-(2-(dimethylamino)benzothiazole-6-yl)-5-fluoropyrimidine-2-yl)amino)pyridine-3-yl)(4-ethylpiperazine-1-yl)ketone]
- IC50 (CDK6 kinase): 18 nM
- effect on growth of xenografts, in words ([1]; Du-145 xenograft in nude mice): significant inhibitory effect
- inhibition on tumor growth, in words ([1]; Du-145 xenograft, 100 mg/kg intragastric once every day, groups compared): better inhibition on tumor growth than the positive drug Palbociclib
- day on which tumor volume started to be reduced [1, 18]: 31 days
- inhibition on tumor growth, in words [1, 18]: significantly inhibited tumor growth
- IC50 [2]: 917 nM
- IC50 (DYRK2 kinase): 9 nM
- IC50 [3]: 1540 nM
- IC50 [4]: 1750 nM
- effect on growth of xenografts, in words ([5]; A549 xenograft in nude mice): significant inhibitory effect
- relative tumor proliferation rate T/C(%) [5, 19]: 44.8%
- tumor growth inhibition rate [5, 19]: 55.2%
- relative tumor proliferation rate T/C(%) [5, 20]: 35.9%
- tumor growth inhibition rate [5, 20]: 64.1%
- effect on growth of xenografts, in words ([6]; PC-3 xenograft in nude mice): significant inhibitory effect
- relative tumor proliferation rate T/C(%) [6, 21]: 35.7%
- tumor growth inhibition rate [6, 21]: 64.3%
- relative tumor proliferation rate T/C(%) [6, 22]: 23.4%
- tumor growth inhibition rate [6, 22]: 76.6%
- IC50 [7]: 3.3 µM
- IC50 [8]: 2150 nM
- IC50 [9]: 1080 nM
- IC50 [10]: 1930 nM
- IC50 [11]: 2130 nM
- IC50 [12]: 1870 nM
- Pharmacokinetic assessment in words [13]: good metabolism in rats, good absorption and exposure and high bioavailability
- F (bioavailability) ([13]; po 10 mg/kg vs iv 1 mg/kg): 55.78%
- Cl ([13]; po gavage 10 mg/kg): 1198 mL/h/kg
- AUC(0-inf) [13, 23]: 1500 ng·h/mL
- Cmax [13, 23]: 974 ng/mL
- Tmax [13, 23]: 0.033 h
- clearance [13, 23]: 11.1 mL/min/kg
- half-life [13, 23]: 179 min
- AUC(0-inf) [13, 24]: 8380 ng·h/mL
- Cmax [13, 24]: 674 ng/mL
- Tmax [13, 24]: 4 h
- half-life [13, 24]: 305 min
- IC50 [14]: 1780 nM
- Organ toxicity by HE staining (ICR mice; acute toxicity assay, FIG. 2): no significant toxicity to heart, liver, spleen, lung, kidney and other major organs
- Toxicity symptoms / abnormality (ICR mice; single gavage 2500, 5000 or 10000 mg/kg): no abnormality was found within 12 h after administration in all groups
- Death of mice (ICR mice; single gavage 2500, 5000 or 10000 mg/kg, 14 days observation): No animals died within 24h of dosing and no animals died after day 14 of dosing
- IC50 [15]: 2020 nM
- IC50 [16]: 1890 nM
- IC50 [17]: 1060 nM
- IC50 (lung cancer (A-549)): 1640 nM
